Reference: ChEMBL document CHEMBL1130673, “Hydroindenic-guanylhydrazones. Synthesis and evaluation as inotropic agents” (1998)

What was measured:
[1] = species on record: Cavia porcellus; test: Compound was measured for inotropic activity against isolated guinea pig atria at concentration 3 x 10e-4; Negative inotropic activity; type: functional
[2] = species on record: Cavia porcellus; test: Compound was measured for inotropic activity against isolated guinea pig atria at concentration 3 x 10e-4; type: functional

SMILES	Activity [1]	Reduction [2] [%]
C[C@]12CCC(OC(c3ccccc3)(c3ccccc3)c3ccccc3)C[C@@]1(O)CC[C@@H]2CO (stereo not given in full)	Negative inotropic activity	
C[C@]12CC/C(=N\N=C(N)N)C[C@@]1(O)CCC2/C=N/N=C(N)N (stereo not given in full)	Negative inotropic activity	
CC(=O)OC[C@H]1CC[C@]2(O)CC3(CC[C@]12C)SCCCS3		56
C[C@]12CCC3(C[C@@]1(O)CCC2/C=N/N=C(N)N)OCCO3 (stereo not given in full)	Negative inotropic activity	
COC(=O)/C=C/[C@H]1CC[C@]2(O)CC3(CC[C@]12C)SCCCS3		85
